Ends that are not written are not given here. Peptide text beside a SMILES is read from it. * marks the point of attachment. FITC = O=C1OC2(c3ccc(O)cc3Oc3cc(O)ccc32)c2ccc(NC(=S)*)cc21

The values below come from article PMC8605023 (Nature Communications, 2021).

In assay [1] the target is T1, AP2M1 (Homo sapiens, UniProt Q96CW1).
T1 construct: His-GST (cleaved yes); made in house; host or cells: E. coli BL21-Gold(DE3)
T1 sequence (Q96CW1 160-435 limits assumed): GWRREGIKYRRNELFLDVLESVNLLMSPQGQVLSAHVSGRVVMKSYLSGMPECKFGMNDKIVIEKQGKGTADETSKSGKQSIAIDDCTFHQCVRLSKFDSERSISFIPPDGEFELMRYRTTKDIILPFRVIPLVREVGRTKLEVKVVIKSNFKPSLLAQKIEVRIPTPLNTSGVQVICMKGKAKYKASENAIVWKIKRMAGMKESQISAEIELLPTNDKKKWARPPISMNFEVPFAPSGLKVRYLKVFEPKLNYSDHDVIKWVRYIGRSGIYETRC
Put plainly: biochemical. In kind it is binding.

In assay [2] the target is T1, AP2M1. Put plainly: FP saturation (direct) binding of FITC-labeled probe peptide, AP2M1. As for the experimental part: (§1) Proteins used for FP affinity measurements were expressed and purified in larger-scale bacterical cultures (at least 8 × 500 mL 2YT). His-GST-tagged G3BP1 and G3BP2 were used directly for affinity measurements after dialysis.
(§2) FP experiments were carried out using a SpectraMax iD5 multimode microplate reader (Molecular Devices) using a black half area 96-well plate (Corning, USA #3993) with a total volume of 50 μL. The settings used were 485 nm for excitation and 535 nm for emission.
(§3) Peptides were from GeneCust (France) with a purity of over 95%. FITC-labeled peptides were dissolved in dimethyl sulfoxide (DMSO). Unlabelled peptides were dissolved in phosphate buffer (50 mM phosphate buffer pH 7.5 and 1–2 mM reducing agent DTT or TCEP). All measurements were performed at least in triplicates. For saturation binding experiment, proteins were serially diluted in the plate with phosphate buffer in a volume 25 μL, and then supplemented with a master mix of 10 nM FITC-labeled peptide in phosphate buffer. […] Twenty-five mitroliter of this displacement master mix was added to unlabeled peptides, which were serially diluted in the plate in 25 μL phosphate buffer.
(§4) The data were analysed with GraphPad Prism version 9.0.0 for MacOS (GraphPad Software, San Diego, California USA, www.graphpad.com). […]

For assay [3], the target named is FERM domain of Ezrin (EZR) (Homo sapiens, UniProt P15311). Put plainly: biochemical. The assay is classed as binding.
Sequence of FERM domain of Ezrin (EZR) (P15311 2-296 limits assumed): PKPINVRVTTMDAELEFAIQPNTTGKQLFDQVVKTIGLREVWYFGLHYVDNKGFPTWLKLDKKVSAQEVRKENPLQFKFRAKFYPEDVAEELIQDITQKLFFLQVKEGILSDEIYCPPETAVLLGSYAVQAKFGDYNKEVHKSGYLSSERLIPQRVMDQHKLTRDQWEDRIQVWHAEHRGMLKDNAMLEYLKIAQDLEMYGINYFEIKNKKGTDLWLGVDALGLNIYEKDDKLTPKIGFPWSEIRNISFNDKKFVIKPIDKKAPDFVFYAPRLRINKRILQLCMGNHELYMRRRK
Assay [4] deals with T2, MAP1LC3C (Homo sapiens, UniProt Q9BXW4).
T2 construct: His-GST (cleaved yes); made in house; host or cells: E. coli BL21-Gold(DE3)
T2 sequence (Q9BXW4 1-126 limits assumed): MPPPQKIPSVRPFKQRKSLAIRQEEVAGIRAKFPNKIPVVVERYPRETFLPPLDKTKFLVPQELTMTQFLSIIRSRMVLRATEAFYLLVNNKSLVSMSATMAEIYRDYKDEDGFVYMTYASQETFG
The experiment in a line: FP saturation (direct) binding of FITC-labeled probe peptide, MAP1LC3C. The protocol: as §1, §2, §3, §4

Assay [5] addresses T3, USP7 (Homo sapiens, UniProt Q93009).
T3 construct: His-GST (cleaved yes); made in house; host or cells: E. coli BL21-Gold(DE3)
The experiment in a line: FP saturation (direct) binding of FITC-labeled probe peptide, USP7. As to conditions: Kd direct binding of 10 nM FITC probe, saturation with protein. The protocol:
as §1, §2, §3, §4

Assay [6] addresses T2, MAP1LC3C. Put plainly: biochemical. In kind it is binding.
Assay [7] has as its target T3, USP7. Put plainly: biochemical. In kind it is binding.

T3 sequence (Q93009 63-205 limits assumed): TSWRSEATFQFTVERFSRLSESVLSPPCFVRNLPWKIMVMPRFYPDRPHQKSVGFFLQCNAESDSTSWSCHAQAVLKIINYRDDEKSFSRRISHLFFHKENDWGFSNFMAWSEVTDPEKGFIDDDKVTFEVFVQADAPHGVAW

A word on the Kd: it is a measure of binding affinity in units of concentration. The low end stands for tighter binding, the high end for weaker binding. A word on the Ki: it is a dissociation constant, usually derived from enzyme kinetics or from competition with a known ligand. A higher Ki goes with weaker binding. Consider `CC[C@H](C)[C@H](NC(=O)[C@H](CCSC)NC(=O)[C@H](CO)NC(C)=O)C(=O)N[C@@H](CCC(=O)O)C(=O)N[C@@H](CC(=O)O)C(=O)N[C@H](C(=O)N[C@@H](CC(=O)O)C(=O)N[C@@H](Cc1ccc(O)cc1)C(=O)N[C@H](C(=O)N1CCC[C@H]1C(=O)N[C@@H](CC(C)C)C(=O)N[C@@H](CCCCN)C(=O)N[C@@H](CO)C(=O)N[C@@H](C)C(=O)N[C@H](C(N)=O)C(C)C)C(C)C)[C@@H](C)CC` [NSP14 6498-6512 Mers], for which, in assay [1], the Kd was found to be 3 ± 0.1 µM and the Ki was 3 µM.
Broadly, the IC50 is the point on the concentration scale where inhibition reaches its midpoint. Low readings indicate greater potency, high ones weaker potency. Turning to `CC[C@H](C)[C@H](NC(=O)[C@H](Cc1c[nH]cn1)NC(=O)[C@H](CCCCN)NC(=O)[C@H](CC(N)=O)NC(=O)[C@H](CC(C)C)NC(C)=O)C(=O)N[C@@H](CC(=O)O)C(=O)N[C@@H](C)C(=O)N[C@@H](Cc1ccc(O)cc1)C(=O)N[C@@H](CCCCN)C(=O)N[C@H](C(=O)N[C@@H](Cc1ccccc1)C(=O)N1CCC[C@H]1C(=O)N1CCC[C@H]1C(=O)N[C@H](C(=O)N[C@@H](CCC(=O)O)C(N)=O)[C@@H](C)O)[C@@H](C)O` [N 353-367 Sars-CoV2/Sars-CoV], in assay [1], the IC50 is 1530 µM and the Ki was 530 µM.
In turn, `CC(C)C[C@H](NC(=O)[C@H](CCCNC(=N)N)NC(=O)[C@H](CCC(N)=O)NC(=O)[C@H](Cc1ccc(O)cc1)NC(=O)[C@H](CCC(=O)O)NC(=O)[C@@H](NC(=O)[C@H](CC(=O)O)NC(=O)[C@H](Cc1ccccc1)NC(=S)Nc1ccc2c(c1)C(=O)OC21c2ccc(O)cc2Oc2cc(O)ccc21)[C@@H](C)O)C(=O)N[C@@H](CCC(=O)O)C(=O)N[C@@H](C)C(=O)N[C@@H](CO)C(=O)O` [ATG9A 4-14 Human] (HELM PEPTIDE1{[O=C1OC2(c3ccc(O)cc3Oc3cc(O)ccc32)c2ccc(NC(=S)[*:2])cc21].F.D.T.E.Y.Q.R.L.E.A.S}$$$$V2.0) came in with a Kd in assay [2] of 1.1 ± 0.03 µM.
With `CC[C@H](C)[C@H](NC(=O)[C@H](CC(C)C)NC(=O)[C@@H](NC(=O)CNC(=O)[C@@H](NC(=O)[C@H](CCC(=O)O)NC(=O)[C@H](CCC(=O)O)NC(=O)[C@H](CO)NC(=O)[C@@H](NC(=O)[C@H](Cc1ccccc1)NC(=O)[C@H](CO)NC(=O)[C@H](Cc1ccc(O)cc1)NC(=O)[C@@H](N)CCSC)C(C)C)[C@@H](C)O)[C@@H](C)O)C(=O)N[C@H](C(=O)N[C@@H](CC(N)=O)C(=O)N[C@@H](CO)C(=O)O)C(C)C` [E 1-16 Sars-CoV2/Sars-CoV] (H-MYSFVSEETGTLIVNS-OH), the Kd in assay [3] came to 57.9 ± 0.4 µM.
As to `CC[C@H](C)[C@H](NC(=O)[C@H](CC(=O)O)NC(=O)[C@H](CO)NC(=O)[C@@H](NC(=O)[C@@H](NC(=O)CNC(C)=O)C(C)C)C(C)C)C(=O)N[C@@H](CC(=O)O)C(=O)N[C@@H](Cc1ccc(O)cc1)C(=O)N[C@H](C(=O)N1CCC[C@H]1C(=O)N[C@@H](CC(C)C)C(=O)N[C@@H](CCCCN)C(=O)N[C@@H](CO)C(=O)N[C@@H](C)C(=O)N[C@H](C(N)=O)[C@@H](C)O)C(C)C`, the Kd in assay [1] is 1.6 ± 0.2 µM.
`CC(C)C[C@H](NC(=O)[C@H](Cc1c[nH]cn1)NC(=O)[C@@H](NC(=O)[C@H](Cc1c[nH]c2ccccc12)NC(=O)[C@H](CC(=O)O)NC(=O)[C@H](CC(=O)O)NC(=O)[C@H](CC(=O)O)NC(=S)Nc1ccc2c(c1)C(=O)OC21c2ccc(O)cc2Oc2cc(O)ccc21)[C@@H](C)O)C(=O)N[C@@H](CO)C(=O)N[C@@H](CO)C(=O)N[C@@H](CCCCN)C(N)=O` [SQSTM1 335-344 Human] showed a Kd in assay [4] of 1.1 ± 0.03 µM.
Consider “{FITC}-DYSQPSTSSSIIY [MDM2 393-414 Human]”, for which the “Ki displacement/Kd direct binding” value in assay [5] came out at 0.49 µM.
On to `CC(C)C[C@H](NC(=O)[C@@H](NC(=O)[C@H](CC(=O)O)NC(=O)[C@H](Cc1ccccc1)NC(=O)[C@H](CO)NC(=O)[C@H](CC(N)=O)NC(=O)[C@H](CO)NC(=O)[C@@H](NC(=O)[C@H](CCC(=O)O)NC(=O)[C@@H](N)C(C)C)[C@@H](C)O)C(C)C)C(=O)N[C@@H](CCCCN)C(=O)N[C@@H](CO)C(=O)N[C@@H](CCC(=O)O)C(=O)N[C@@H](CC(=O)O)C(=O)N[C@@H](C)C(=O)N[C@@H](CCC(N)=O)C(=O)N[C@@H](Cc1ccc(O)cc1)C(=O)O` [NSP3 2019-2034 Sars-CoV2], for which the Kd in assay [3] is 19.8 ± 0.4 µM. In assay [6], half-maximal inhibition (IC50) was put at 1530 µM; the affinity, expressed as Kd, was 210 ± 18 µM; the Ki turned out to be 210 µM. Further, in assay [7], the IC50 turned out to be 270 µM, the dissociation constant Kd was 37 ± 0.2 µM and the Ki was found to be 37 µM.
